The nature of this data set: Solubility in water (remark in preparation). The class given is physicochemical.

On to “[K]2[trans-RuCl4(Me2SO)]2(μ-pyz) [Example 6]”, for which the Solubility in water result is reported as “not very soluble in water”.

Values taken from patent publication US6921824B1, “Ruthenium dimeric complexes suitable as antimetastatic and antineoplastic agents” (priority 1999, dated 2005).
